In patent publication US10201531B2, “Indazolyl-oxo-isothiazole compounds” (MOCHIDA PHARMACEUTICAL CO., LTD., priority 2015, dated 2019):

Tested on: Nrf2
Assay: Evaluation of Nrf2 activation ability (Nrf2d-LacZ / Keap1 HEK293 reporter, Beta-Glo luminescence)
Assay type: cell-based, human
Method in brief: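 HEK293 cells stably expressing a human Nrf2 degron–LacZ fusion plus human Keap1 were exposed to compound for 3 h at 37° C. Reporter β-galactosidase was read by Beta-Glo luminescence after 1 h at RT. Activation is given as % of the signal with 100 nM CDDO-Im.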

[1] = rated A/B/C, Pharmacological Test Example 1
[2] = Pharmacological Test Example 1, rated A/B/C

SMILES	EC50 [1] [nM]	EC50 [2] [nM]
COCCN1CCOc2cc(-c3ccc4c(cnn4-c4cc(O)n[s+]4[O-])c3)cnc21 (stereo not drawn) [Example 172]	< 1000	
COc1nn(-c2cc(O)n[s+]2[O-])c2ccc(-c3cnc4c(c3)OCCN4C)cc12 (stereo not drawn) [Example 223]	1000 to 5000	
Cn1cc(-c2cccc3c2cnn3-c2cc(O)n[s+]2[O-])cn1 (stereo not drawn) [Example 101]	1000 to 5000	
COc1cc(-c2cccnc2)c2cnn(-c3cc(O)n[s+]3[O-])c2c1 (stereo not drawn) [Example 166]	1000 to 5000	
Cc1cncc(-c2cccc3c2cnn3-c2cc(O)n[s+]2[O-])c1 (stereo not drawn) [Example 100]	1000 to 5000	
[O-][s+]1nc(O)cc1-n1cc(-c2ccc(N3CCCCC3)nc2)cn1 (stereo not drawn) [Example 321]		1000 to 5000
CN1CCOc2nc(-c3ccc4c(cnn4-c4cc(O)n[s+]4[O-])c3)ccc21 (stereo not drawn) [Example 179]	< 1000	
COC(=O)c1ccccc1-c1cnn(-c2cc(O)n[s+]2[O-])c1 (stereo not drawn) [Example 330]		1000 to 5000
[O-][s+]1nc(O)cc1-n1ncc2cc(-c3ccc(N4CCC5(COC5)C4)nc3)ccc21 (stereo not drawn) [Example 161]	< 1000	
Cc1cnc(-c2cnn(-c3cc(O)n[s+]3[O-])c2)c(C)n1 (stereo not drawn) [Example 421]		1000 to 5000
[O-][s+]1nc(O)cc1-n1cc2cc(OCc3cccnc3)ccc2n1 (stereo not drawn) [Example 445]		1000 to 5000
Cc1cccc(C)c1-c1cccc(COc2ccc(-c3cnn(-c4cc(O)n[s+]4[O-])c3)cc2)c1 (stereo not drawn) [Example 338]		1000 to 5000
CC(C)(C)OC(=O)N1CC=C(c2ccc(-c3cnn(-c4cc(O)n[s+]4[O-])c3)cn2)CC1 (single isomer, unassigned) [Example 449]		1000 to 5000
[O-][s+]1nc(O)cc1-n1cc(-c2cccc3cccnc23)cn1 (stereo not drawn) [Example 382]		< 1000
[O-][s+]1nc(O)cc1-n1ncc2cc(Br)ncc21 (stereo not drawn) [Example 234]	1000 to 5000	
[O-][s+]1nc(O)cc1-n1cc(C2CCCCC2)cn1 (stereo not drawn) [Example 306]	1000 to 5000	
[O-][s+]1nc(O)cc1-n1cc(-c2ccc(-c3ccc(N4CCCCC4)nc3)nc2)cn1 (stereo not drawn) [Example 442]		< 1000
[O-][s+]1nc(O)cc1-n1cc(-c2ccc3c(c2)OCCO3)cn1 (stereo not drawn) [Example 346]		1000 to 5000
[O-][s+]1nc(O)cc1-n1ncc2cc(-c3ccc(F)cn3)ccc21 (stereo not drawn) [Example 119]	1000 to 5000	
[O-][s+]1nc(O)cc1-n1cc(-c2ccc(Oc3ccc(C(F)(F)F)cc3Cl)cc2)cn1 (stereo not drawn) [Example 374]		1000 to 5000
Cc1nn(-c2cc(O)n[s+]2[O-])c(C)c1C1=CCCCC1 (stereo not drawn) [Example 315]		1000 to 5000
Cc1cncc(-c2ccc3c(cnn3-c3cc(O)n[s+]3[O-])c2)c1 (stereo not drawn) [Example 56]	< 1000	

SMILES	EC50 [1] [nM]	EC50 [2] [nM]
Cc1nn(-c2cc(O)n[s+]2[O-])c(C)c1-c1ccccc1 (stereo not drawn) [Example 311]	5000 to 10000	
[O-][s+]1nc(O)cc1-n1ncc2cc(-c3cnc4c(c3)OCCN4CC3CC3)ccc21 (stereo not drawn) [Example 150]	< 1000	
COc1cccc(-c2ccc3c(cnn3-c3cc(O)n[s+]3[O-])c2)n1 (stereo not drawn) [Example 129]	< 1000	
[O-][s+]1nc(O)cc1-n1cc(-c2ccc3ncccc3c2)cn1 (stereo not drawn) [Example 350]		< 1000
Cc1cccc2cnn(-c3cc(O)n[s+]3[O-])c12 (stereo not drawn) [Example 34]	1000 to 5000	
CN1CCN(c2cc(-c3ccc4c(cnn4-c4cc(O)n[s+]4[O-])c3)ccn2)CC1 (stereo not drawn) [Example 53]	< 1000	
O=C(NC1CC1)c1ccc(-c2ccc3c(cnn3-c3cc(O)n[s+]3[O-])c2)cc1 (stereo not drawn) [Example 68]	1000 to 5000	
COc1ncccc1-c1cnn(-c2cc(O)n[s+]2[O-])c1 (stereo not drawn) [Example 393]		< 1000
COc1cc(-c2ccc3cnn(-c4cc(O)n[s+]4[O-])c3c2)ccn1 (stereo not drawn) [Example 110]	1000 to 5000	
[O-][s+]1nc(O)cc1-n1ncc2cc(OCc3cccnc3)ccc21 (stereo not drawn) [Example 144]	1000 to 5000	
COc1cc(-c2cnn(-c3cc(O)n[s+]3[O-])c2)ccn1 (stereo not drawn) [Example 404]		< 1000
CN1CCOc2cc(-c3ccc4c(cnn4-c4cc(O)n[s+]4[O-])c3)c(C(F)F)nc21 (stereo not drawn) [Example 204]	< 1000	
[O-][s+]1nc(O)cc1-n1ncc2cc(-c3ccccc3)ccc21 (stereo not drawn) [Example 28]	1000 to 5000	
COc1ccc(-c2cnn(-c3cc(O)n[s+]3[O-])c2)cn1 (stereo not drawn) [Example 392]		< 1000
[O-][s+]1nc(O)cc1-n1ncc2cccnc21 (stereo not drawn) [Example 238]	1000 to 5000	
Cc1cncc(-c2ccc3c(cnn3-c3cc(O)n[s+]3[O-])c2)n1 (stereo not drawn) [Example 118]	1000 to 5000	
CCN1CCOc2cc(-c3ccc4c(cnn4-c4cc(O)n[s+]4[O-])c3)cnc21 (stereo not drawn) [Example 143]	< 1000	
[O-][s+]1nc(O)cc1-n1ncc2cc(-c3cc4c(cn3)NCCO4)ccc21 (stereo not drawn) [Example 219]	< 1000	
[O-][s+]1nc(O)cc1-n1cc(-c2ccc3ccccc3c2)cn1 (stereo not drawn) [Example 340]		< 1000
CC(C)N1CCOc2cc(-c3ccc4c(cnn4-c4cc(O)n[s+]4[O-])c3)cnc21 (stereo not drawn) [Example 8]	< 1000	
[O-][s+]1nc(O)cc1-n1cc(C2CCOCC2)cn1 (stereo not drawn) [Example 308]	5000 to 10000	
COc1ccc(-c2cnn(-c3cc(O)n[s+]3[O-])c2)c(OC)n1 (stereo not drawn) [Example 399]		< 1000

SMILES	EC50 [1] [nM]	EC50 [2] [nM]
COc1cc(-c2ccc(-c3cnn(-c4cc(O)n[s+]4[O-])c3)cn2)ccn1 (stereo not drawn) [Example 446]		< 1000
Cc1cnc(-c2ccc3c(cnn3-c3cc(O)n[s+]3[O-])c2)cn1 (stereo not drawn) [Example 123]	< 1000	
[O-][s+]1nc(O)cc1-n1ncc2cc(-c3cnc4ccoc4c3)ccc21 (stereo not drawn) [Example 61]	< 1000	
[O-][s+]1nc(O)cc1-n1ncc2cc(-c3ccc(F)cc3)ccc21 (stereo not drawn) [Example 85]	< 1000	
COc1cc2cnn(-c3cc(O)n[s+]3[O-])c2cn1 (stereo not drawn) [Example 242]	< 1000	
[O-][s+]1nc(O)cc1-n1ncc2cc(-c3ccc(N4CCC(F)(F)C4)nc3)ccc21 (stereo not drawn) [Example 182]	< 1000	
Cc1cc(-c2ccccc2)nn1-c1cc(O)n[s+]1[O-] (stereo not drawn) [Example 310]	1000 to 5000	
COc1ncccc1-c1ccc(-c2cnn(-c3cc(O)n[s+]3[O-])c2)cn1 (stereo not drawn) [Example 447]		< 1000
[O-][s+]1nc(O)cc1-n1cc(-c2ccc(-c3ccc(N4CCCC4)nc3)nc2)cn1 (stereo not drawn) [Example 441]		< 1000
CC(=O)NC1(c2ccc(-c3ccc4c(cnn4-c4cc(O)n[s+]4[O-])c3)cc2)CC1 (stereo not drawn) [Example 65]	5000 to 10000	
CN(C)Cc1cccc(-c2cnn(-c3cc(O)n[s+]3[O-])c2)c1 (stereo not drawn) [Example 406]		5000 to 10000
[O-][s+]1nc(O)cc1-n1ncc2c(C3=CCOCC3)cccc21 (stereo not drawn) [Example 95]	5000 to 10000	
[O-][s+]1nc(O)cc1-n1ncc2cc(-c3ccccc3F)ccc21 (stereo not drawn) [Example 83]	< 1000	
Cc1nn(-c2cc(O)n[s+]2[O-])c(C)c1C1=CCC(C)(C)CC1 (stereo not drawn) [Example 316]		1000 to 5000
COc1ccc(-c2ccc3c(cnn3-c3cc(O)n[s+]3[O-])c2)c(C)n1 (stereo not drawn) [Example 6]	1000 to 5000	
COc1cc(-c2ccncc2)cc2c1cnn2-c1cc(O)n[s+]1[O-] (stereo not drawn) [Example 200]	1000 to 5000	
Cn1ccc2c(-c3cnn(-c4cc(O)n[s+]4[O-])c3)cccc21 (stereo not drawn) [Example 352]		< 1000
[O-][s+]1nc(O)cc1-n1ncc2cc(-c3cccnc3)ccc21 (stereo not drawn) [Example 54]	< 1000	
[O-][s+]1nc(O)cc1-n1cc(-c2ccc(OCc3cccc(C(F)(F)F)c3)cc2)cn1 (stereo not drawn) [Example 375]		1000 to 5000
Cc1cc2cnn(-c3cc(O)n[s+]3[O-])c2cc1C (stereo not drawn) [Example 18]	< 1000	
CC1(C)COc2cc(-c3ccc4c(cnn4-c4cc(O)n[s+]4[O-])c3)cnc2N1 (stereo not drawn) [Example 217]	< 1000	
O=C(c1c(Cl)cccc1Cl)c1nn(-c2cc(O)n[s+]2[O-])c2ccccc12 (stereo not drawn) [Example 22]	1000 to 5000	

SMILES	EC50 [1] [nM]	EC50 [2] [nM]
CN1CCOc2nc(-c3ccc4c(cnn4-c4cc(O)n[s+]4[O-])c3)ncc21 (stereo not drawn) [Example 215]	< 1000	
[O-][s+]1nc(O)cc1-n1ncc2cc(-c3cnc4c(c3)OCCO4)ccc21 (stereo not drawn) [Example 220]	< 1000	
CC(C)(C)OC(=O)N1Cc2cnn(-c3cc(O)n[s+]3[O-])c2C1 (stereo not drawn) [Example 245]	1000 to 5000	
CN1CC(C)(C)Oc2cc(-c3ccc4c(cnn4-c4cc(O)n[s+]4[O-])c3)cnc21 (stereo not drawn) [Example 188]	< 1000	
Cc1ccc2cnn(-c3cc(O)n[s+]3[O-])c2c1 (stereo not drawn) [Example 32]	1000 to 5000	
Cc1nn(-c2cc(O)n[s+]2[O-])c2ccc(Cl)cc12 (stereo not drawn) [Example 15]	1000 to 5000	
[O-][s+]1nc(O)cc1-n1cc(-c2cccc3cccnc23)cn1 (stereo not drawn) [Example 344]		< 1000
[O-][s+]1nc(O)cc1-n1cccn1 (stereo not drawn) [Example 284]	1000 to 5000	
[O-][s+]1nc(O)cc1-n1cc(C2=CCC(F)(F)CC2)cn1 (stereo not drawn) [Example 301]	< 1000	
Cn1ncc2c(-c3cnn(-c4cc(O)n[s+]4[O-])c3)cccc21 (stereo not drawn) [Example 360]		< 1000
CN1CCCOc2cc(-c3ccc4c(cnn4-c4cc(O)n[s+]4[O-])c3)cnc21 (stereo not drawn) [Example 209]	< 1000	
[O-][s+]1nc(O)cc1-n1ncc2cc(-c3ccc(N4CCCCC4)nc3)ccc21 (stereo not drawn) [Example 90]	< 1000	
CN1CCOc2nc(-c3ccc4c(cnn4-c4cc(O)n[s+]4[O-])c3)cnc21 (stereo not drawn) [Example 210]	< 1000	
[2H]c1cccc(-c2ccc3c(cnn3-c3cc(O)n[s+]3[O-])c2)n1 (stereo not drawn) [Example 89]	< 1000	
CN1CCOc2cc(-c3cnn(-c4cc(O)n[s+]4[O-])c3)ccc21 (stereo not drawn) [Example 347]		< 1000
[O-][s+]1nc(O)cc1-n1cc(-c2cccnc2C(F)(F)F)cn1 (stereo not drawn) [Example 395]		1000 to 5000
Cc1cccc(-c2ccc3c(cnn3-c3cc(O)n[s+]3[O-])c2)n1 (stereo not drawn) [Example 117]	< 1000	
N#Cc1ccc(Oc2ccc(-c3cnn(-c4cc(O)n[s+]4[O-])c3)cc2)cc1 (stereo not drawn) [Example 362]		< 1000
O=C(NC1CC1)c1ccc(F)c(-c2ccc3c(cnn3-c3cc(O)n[s+]3[O-])c2)c1 (stereo not drawn) [Example 63]	5000 to 10000	
[O-][s+]1nc(O)cc1-n1ncc2cc(C3=CCC(F)(F)CC3)ccc21 (stereo not drawn) [Example 39]	< 1000	
[O-][s+]1nc(O)cc1-n1ncc2cc(-c3cncc(N4CCCC4)n3)ccc21 (stereo not drawn) [Example 141]	< 1000	
